Test results from patent US12636368B2, “Ionizable lipids for nucleic acid delivery” (Global Life Sciences Solutions Canada ULC, priority 2019, dated 2026).

System: C57BL/6 mice
Assay: OVA mRNA LNP intramuscular immunization, anti OVA-IgG ELISA
Type: in vivo
Settings: i.m., days 1 and 10
Excerpt: LNP with the composition LM02b were used to encapsulate OVA antigen encoded CleanCap® OVA WT mRNA [TriLink L7610] or CleanCap® OVA 5-moU mRNA [TriLink L7210]. A lipid mixture of Ionizable lipid, DOPE, Cholesterol, and PEG-DMG2000, all in ethanol, was mixed with a low PH buffered solution of OVA mRNA at an N/P ratio of 8 using a NanoAssemblr® Ignite™ microfluidic mixer. The LNP were filtered using the Amicon™ ultra filtration technique and characterized for Size, PDI and Encapsulation Efficiency. Size and PDI were measured using dynamic light scattering techniques, and nucleic acid encapsulation efficiency was calculated from the Quant-iT RiboGreen RNA assay. […]
All animals were handled according to the Institutional Animal Care and Use Committee ethics protocols. […] Aliquots of serum samples were thawed and analyzed at appropriate dilutions for OVA expression and for IgG measurements using standard ELISA techniques.
Anti OVA-IgG ELISA of serum samples: Sera from the immunized mice were collected at 2 weeks post second immunization. OVA-specific production of IgG in response to OVA-encoded mRNA in various LNPs were measured by ELISA as described supra. […] After 30 minutes of incubation, a stop solution of 2 N sulphuric acid was added and a plate reader was used to determine absorbance at 450 nm. […]

Compound: CCCCC/C=C\C/C=C\CCCCCCCC(=O)O[C@@H]1[C@@H](OC(=O)CCCCCCC/C=C\C/C=C\CCCCC)CO[C@@H]1COC(=O)CCCN1CCCC1 (racemic) [PNI 539]
- immune response to OVA antigen loaded LNPs: effectively elicit an immune response similar to OVA antigen
